These are literature values, as cited in PMC11665553, “12-Lipoxygenase inhibition delays onset of autoimmune diabetes in human gene replacement mice” (JCI Insight, 2024).

Data set [1] concerns NOD mice. On the set-up: method as in PMID 28842399. The note with it: cited from earlier work.
On the set-up of data set [2]: method as in PMID 28842399. As to conditions: cited from earlier work.

As for `CNc1oc(-c2cccc3ccccc23)nc1C#N` [ML351], the “Effect in NOD mice” value in data set [1] is “reductions in insulitis and improvements in glucose homeostasis”.
For `CC(=O)NC(c1cccs1)c1cc(Br)c2cccnc2c1O` (centres unmarked) [ML127], the Off-target cytotoxicity entry in data set [2] was “evidence of off-target cytotoxicity”.
